The values below come from article PMC4099174 (Journal of Medicinal Chemistry, 2014).

Where two headings read alike, the source gives them in different places. Marks after values point to notes of the source that are not given here. Where only a bound is given, the exact number is not on record here.

Data set [1] deals with phosphorylated PIs (PIP, PIP3) in T. brucei cells. Nature of the data set: Phospholipidomics analysis (ES-MS of lipid extracts). The settings on record: 200 nM, 12 h; negative ion mode scans 950–1300 m/z. The data set is classed as cell-based, Trypanosoma brucei. From the text: We originally selected 1 to investigate its potential as an trypanocidal agent on the basis of its activity as a PI3K/mTOR inhibitor in mammalian cells and the fact that PI3K activity is essential for the bloodstream form of the T. brucei parasite.[25] In the interest of elucidating the potential mechanism of action against T. brucei cells, we performed a lipidomic analysis to discern if PI kinases are likely targets of these analogues. Lipid extracts of cells grown in the presence of the best compounds at sublethal doses (200 nM) for 12 h were analyzed by ES-MS. […] There were no significant differences in the phosphatidylcholine (PC) and sphingomylein (SM) species between the control and cells grown in the presence of the other compounds (Figure S1). […] Alternatively, as is often the case, changes in the lipid profile could be a reflection in the cells succumbing to (or adapting to) a defect in a major cellular process, such as endo- or exocytosis or cell cycle arrest.
Because these compounds are thought to target PI3K, negative ion mode scans between 950 and 1300 m/z were conducted to focus upon singly and multiply phosphorylated PIs.
Total lipids from mid log phase cells were extracted by the method of Bligh and Dyer.[30] Briefly, mid log phase cells were collected by centrifugation (800g, 10 min), washed with PBS, resuspended in 100 μL of TDB-glucose, transferred to a glass tube containing 375 μL of 1:2 (v/v) CHCl3/MeOH, and vortexed. The sample was agitated vigorously for a further 10–15 min. The sample was made biphasic by the addition of 125 μL of CHCl3 and vortexed, and then 125 μL of H2O was added. The sample was vortexed again and centrifuged at 3000g at rt for 10 min. The lower (organic) phase was transferred into a new glass vial, and the aqueous phase was re-extracted with the fresh lower phase. The resultant lower phase lipid extract was dried under a stream of nitrogen and stored at 4 °C.
Lipid extracts were dissolved in 15 μL of CHCl3/MeOH (1:2) and 15 μL of acetonitrile/isopropanol/water (6:7:2) and analyzed with a triple quadrupole mass spectrometer (Absceix 4000 QTrap) equipped with a nanoelectrospray source. […] The lipid extracts were analyzed in both positive and negative ion modes using a capillary voltage of 1.25 kV. […] Tandem mass spectra (MS/MS) were obtained with collision energies as follows: 35–45 V, PC/SM in positive ion mode, parent-ion scanning of m/z 184; 35–55 V, PI in negative ion mode, parent-ion scanning of m/z 241; 35–65 V, PE in negative ion mode, parent-ion scanning of m/z 196; 20–35 V, PS in negative ion mode, neutral loss scanning of m/z 87; and 40–90 V, for all glycerophospholipids (including PA, PG, and cardiolipin) detected by precursor scanning for m/z 153 in negative ion mode. […]

In data set [2] the test system is bloodstream form of T. brucei. As to the kind of experiment: Transferrin uptake (receptor-mediated endocytosis). Format: cell-based, Trypanosoma brucei. The settings on record: concentration twice the EC50, 18 h. From the text: Highly efficient and rapid endocytosis is one of the most important cellular processes for this infective parasite to survive and multiply within the bloodstream of the host, and the activity of TbPI3KIII is essential for this process.[25] To gain insight on the possible target(s) of our compounds, we carried out transferrin uptake experiments to measure receptor-mediated endocytosis after drug treatment. […] Compound 16e induced a phenotype defective in endocytosis (Figure 3); however, the PIP3 molecular species identified (42:7-9) was not the same PIP3 molecular species identified in WT cells (44:9-12).
Two million trypanosomes were harvested and washed with TDB-glucose plus 1% BSA, resuspended in 250 μL in the same buffer, and incubated for 10 min at 37 °C prior to the addition of 5 μg of AlexaFluor 488-conjugated human holo-Tf (Invitrogen). Incubations were carried out for 0 (no Tf) or 3 min at 37 °C, after which cells were immediately fixed in 4 °C in 1% PFA diluted in cold PBS for at least 1 h. Parasites were finally washed twice with PBS and analyzed with a Becton Dickinson FACSCalibur flow cytometer (BD Biosciences) using BD CellQuest Pro version 4.0.2 software.

In data set [3] the test system is Bloodstream form culture of T. b. brucei. As to the kind of experiment: Cell cycle analysis by FACS (propidium iodide). Format: cell-based, Trypanosoma brucei brucei. The conditions noted are these: concentration twice the EC50, 18 h. As to the method:
For cell cycle analysis, samples (1.5 × 10^6 cells) were collected, centrifuged (1400g at 4 °C for 5 min), and washed in trypanosome dilution buffer (TDB). The cell pellets were gently suspended in 50 μL of TDB and permeabilized by adding 1 μL of saponin (25 mg/mL) for 3 min. It was then mixed with another 450 μL of TDB. RNase and propidium iodide (PI) were added to the suspension at final concentrations of 10 and 20 μg/mL, respectively, and the samples were incubated at room temperature for 30 min and then stored at 4 °C. The DNA content of PI-stained cells and the percentage of cells in each phase of the cell cycle (10 000 cells per sample) were analyzed with a Becton Dickinson FACSCalibur flow cytometer (BD Biosciences) using BD CellQuest Pro version 4.0.2 software.
Figure S3. Cell Cycle analysis of parasites upon dosage with NVP-BEZ235 derivative.
Bloodstream form culture of T. b. brucei was subjected to different drugs and analyzed by
Fluorescencecactivated cell sorter (FACS) for DNA content stained by propidium iodide (PI).
Cell cultures were incubated during 18 h with various NVPcBEZ235 derivatives using DMSO as
a control treatment. Mean ± SD of three independent experiments are shown.
In general terms: A flow cytometer gives signals particle by particle.

Setting [4] is: Table 1, Selectivity = TC50/EC50 (HepG2 / T. brucei).
Setting [5] is: Table 2, Selectivity = TC50/EC50.

In the case of `Cn1c(=O)n(-c2ccc(C(C)(C)C#N)cc2)c2c3cc(-c4ccncc4)ccc3ncc21` [Compound 4a], the “HepG2 TC50” value with HepG2 cell line (human, 48 h) came to 3.43 µM.

For the compound `Cn1c(=O)n(-c2ccc(C(C)(C)C#N)cc2)c2c3cc(-c4cccnc4)ccc3ncc21` [Compound 4b, 2-Methyl-2-(4-(3-methyl-2-oxo-8-(pyridin-3-yl)-2,3-dihydro-1H-imidazo[4,5-c]quinolin-1-yl)phenyl)propanenitrile], the “HepG2 cytotoxicity TC50” value in the data set with HepG2 cell line (human, 48 h) stood at 575 nM.

For the compound `Cn1c(=O)n(-c2ccc(C(C)(C)C#N)cc2)c2c3cc(-c4ccccc4)ccc3ncc21` [Compound 4c, 2-Methyl-2-(4-(3-methyl-2-oxo-8-phenyl-2,3-dihydro-1H-imidazo[4,5-c]quinolin-1-yl)phenyl)propanenitrile], in the data set with HepG2 cell line (human, 48 h), the “HepG2 TC50” value was 1.82^d μM. On to `Cn1c(=O)n(-c2ccc(C(C)(C)C#N)cc2)c2c3cc(-c4ccc(C(F)(F)F)nc4)ccc3ncc21` [Compound 4d, 2-Methyl-2-(4-(3-methyl-2-oxo-8-(6-(trifluoromethyl)pyridin-3-yl)-2,3-dihydro-1H-imidazo[4,5-c]quinolin-1-yl)phenyl)propanenitrile], for which the Selectivity with HepG2 cell line (setting [4]) is listed as greater than 470. In the case of `Cn1cc(-c2ccc3ncc4c(c3c2)n(-c2ccc(C(C)(C)C#N)cc2)c(=O)n4C)cn1` [Compound 4e, 2-Methyl-2-(4-(3-methyl-8-(1-methyl-1H-pyrazol-4-yl)-2-oxo-2,3-dihydro-1H-imidazo[4,5-c]quinolin-1-yl)phenyl)propanenitrile], the “phosphorylated PI (PIP) levels vs control cells” value in data set [1] was “significant (albeit incomplete) reduction in PIP levels”. Besides, the “transferrin uptake / endocytosis” value in data set [2] was “did not significantly reduce transferrin endocytosis”. Further, the cell cycle progression entry in data set [3] is “reducing the proportion of cells in G1 and increasing multinucleated cells”.

In the data set on HepG2 cell line (setting [4]), `Cn1c(=O)n(-c2ccc(C(C)(C)C#N)cc2)c2c3cc(-c4cc5ccccc5s4)ccc3ncc21` [Compound 4f, 2-(4-(8-(Benzo[b]thiophen-2-yl)-3-methyl-2-oxo-2,3-dihydro-1H-imidazo[4,5-c]quinolin-1-yl)phenyl)-2-methylpropanenitrile] gave a Selectivity greater than 460. For the same compound, in the data set with HepG2 cell line (human, 48 h), the “HepG2 toxicity (in words)” value was “no HepG2 toxicity observed”. Take `CN1CCN(c2ccc3ncc4c(c3c2)n(-c2ccc(C(C)(C)C#N)cc2)c(=O)n4C)CC1` [Compound 5a, 2-Methyl-2-(4-(3-methyl-8-(4-methylpiperazin-1-yl)-2-oxo-2,3-dihydro-1H-imidazo[4,5-c]quinolin-1-yl)phenyl)propanenitrile]: in the data set with HepG2 cell line (setting [4]), the Selectivity was greater than 5. `Cn1c(=O)n(-c2ccc(C(C)(C)C#N)cc2)c2c3cc(N4CCOCC4)ccc3ncc21` [Compound 5b, 2-Methyl-2-(4-(3-methyl-8-morpholino-2-oxo-2,3-dihydro-1H-imidazo[4,5-c]quinolin-1-yl)phenyl)propanenitrile] returned a Selectivity with HepG2 cell line (setting [4]) greater than 24. The same measure, in the same setting: the result for `Cn1c(=O)n(-c2ccc(C(C)(C)C#N)cc2)c2c3cc(N)ccc3ncc21` [Compound 6, 2-(4-(8-Amino-3-methyl-2-oxo-2,3-dihydro-1H-imidazo[4,5-c]quinolin-1-yl)phenyl)-2-methylpropanenitrile] reads greater than 4. With `CC(=O)Nc1ccc2ncc3c(c2c1)n(-c1ccc(C(C)(C)C#N)cc1)c(=O)n3C` [Compound 7, N-(1-(4-(2-Cyanopropan-2-yl)phenyl)-3-methyl-2-oxo-2,3-dihydro-1H-imidazo[4,5-c]quinolin-8-yl)acetamide], the Selectivity with HepG2 cell line (setting [4]) is recorded as greater than 5.

The compound `Cc1ccc2ncc3c(c2c1)n(-c1ccc(C(C)(C)C#N)cc1)c(=O)n3C` [Compound 8, 2-(4-(3,8-Dimethyl-2-oxo-2,3-dihydro-1H-imidazo[4,5-c]quinolin-1-yl)phenyl)-2-methylpropanenitrile] yielded a Selectivity in the data set with HepG2 cell line (setting [4]) greater than 10. In the data set with HepG2 cell line (setting [4]), `Cn1c(=O)n(-c2ccc(C(C)(C)C#N)cc2)c2c3ccccc3ncc21` [Compound 9, 2-Methyl-2-(4-(3-methyl-2-oxo-2,3-dihydro-1H-imidazo[4,5-c]quinolin-1-yl)phenyl)propanenitrile] returned a Selectivity greater than 80. Further, in the data set on HepG2 cell line (human, 48 h), the “HepG2 TC50” value is greater than 50 µM. Turning to `Cn1c(=O)n(-c2ccc(C(C)(C)C#N)cc2)c2c3cc(C#Cc4cccnc4)ccc3ncc21` [Compound 10, reference compound], the “HepG2 TC50” value in the data set on HepG2 cell line (human, 48 h) is recorded as 0.14^d μM. In the data set on HepG2 cell line (setting [5]), `Cn1c(=O)n(-c2ccc(C(F)(F)F)cc2)c2c3cc(-c4cnc5ccccc5c4)ccc3ncc21` [Compound 16a, 3-Methyl-8-(quinolin-3-yl)-1-(4-(trifluoromethyl)phenyl)-1H-imidazo[4,5-c]quinolin-2(3H)-one] returned a Selectivity greater than 240. In the data set on HepG2 cell line (setting [5]), `Cn1c(=O)n(-c2ccc(C#N)cc2)c2c3cc(-c4cnc5ccccc5c4)ccc3ncc21` [Compound 16b, 4-(3-Methyl-2-oxo-8-(quinolin-3-yl)-2,3-dihydro-1H-imidazo[4,5-c]quinolin-1-yl)benzonitrile] came in with a Selectivity greater than 540. As for `Cn1c(=O)n(-c2ccccc2)c2c3cc(-c4cnc5ccccc5c4)ccc3ncc21` [Compound 16c, 3-Methyl-1-phenyl-8-(quinolin-3-yl)-1H-imidazo[4,5-c]quinolin-2(3H)-one], in the data set on HepG2 cell line (setting [5]), the Selectivity was greater than 1000. Consider `Cn1c(=O)n(-c2ccc(CC#N)cc2)c2c3cc(-c4ccncc4)ccc3ncc21` [Compound 16d, 2-(4-(3-Methyl-2-oxo-8-(pyridin-4-yl)-2,3-dihydro-1H-imidazo[4,5-c]quinolin-1-yl)phenyl)acetonitrile], for which, in the data set with HepG2 cell line (setting [5]), the Selectivity was greater than 560. In the case of `CN(C)c1ccc(-n2c(=O)n(C)c3cnc4ccc(-c5ccncc5)cc4c32)cc1` [Compound 16h, 1-(4-(Dimethylamino)phenyl)-3-methyl-8-(pyridin-4-yl)-1H-imidazo[4,5-c]quinolin-2(3H)-one], in the data set on HepG2 cell line (human, 48 h), the “HepG2 TC50” value is 2.34 µM. For `Cn1c(=O)n(-c2ccc(N3CCOCC3)cc2)c2c3cc(-c4ccncc4)ccc3ncc21` [Compound 16i, 3-Methyl-1-(4-morpholinophenyl)-8-(pyridin-4-yl)-1H-imidazo[4,5-c]quinolin-2(3H)-one], the Selectivity in the data set with HepG2 cell line (setting [5]) is reported as greater than 24.
